Results taken from ChEMBL document CHEMBL1201862, “PubChem BioAssay data set” (2004).
Calls of active or inactive are those of the source.

Legend:
[1] = target: Cytochrome P450 2C9 (Homo sapiens, UniProt P11712); settings: Potency
[2] = Counterscreen for IDE inhibitors: Luminescence-based cell-based high throughput dose response assay to identify compounds that are cytotoxic to HEK cells. [Related pubchem assays: 434962 (Primary screen (IDE inhibitors in singlicate)), 449730 (Counterscreen (Cytotoxicity in triplicate)), 435028 (Confirmation (IDE inhibitors in triplicate)) …; assay type: functional; settings: HEK293
[3] = target: T1, Insulin-degrading enzyme (Homo sapiens, UniProt P14735); assay: Dose Response: Fluorescence polarization-based cell-based high throughput dose response assay for inhibitors of insulin-degrading enzyme (IDE). [Related pubchem assays: 434962 (Primary screen (IDE inhibitors in singlicate)), 449730 (Counterscreen (Cytotoxicity in triplicate)), 435028 (Confirmation (IDE inhibitors in triplicate)), 434984 (Summary …; assay type: functional
T1 sequence (P14735 whole entry): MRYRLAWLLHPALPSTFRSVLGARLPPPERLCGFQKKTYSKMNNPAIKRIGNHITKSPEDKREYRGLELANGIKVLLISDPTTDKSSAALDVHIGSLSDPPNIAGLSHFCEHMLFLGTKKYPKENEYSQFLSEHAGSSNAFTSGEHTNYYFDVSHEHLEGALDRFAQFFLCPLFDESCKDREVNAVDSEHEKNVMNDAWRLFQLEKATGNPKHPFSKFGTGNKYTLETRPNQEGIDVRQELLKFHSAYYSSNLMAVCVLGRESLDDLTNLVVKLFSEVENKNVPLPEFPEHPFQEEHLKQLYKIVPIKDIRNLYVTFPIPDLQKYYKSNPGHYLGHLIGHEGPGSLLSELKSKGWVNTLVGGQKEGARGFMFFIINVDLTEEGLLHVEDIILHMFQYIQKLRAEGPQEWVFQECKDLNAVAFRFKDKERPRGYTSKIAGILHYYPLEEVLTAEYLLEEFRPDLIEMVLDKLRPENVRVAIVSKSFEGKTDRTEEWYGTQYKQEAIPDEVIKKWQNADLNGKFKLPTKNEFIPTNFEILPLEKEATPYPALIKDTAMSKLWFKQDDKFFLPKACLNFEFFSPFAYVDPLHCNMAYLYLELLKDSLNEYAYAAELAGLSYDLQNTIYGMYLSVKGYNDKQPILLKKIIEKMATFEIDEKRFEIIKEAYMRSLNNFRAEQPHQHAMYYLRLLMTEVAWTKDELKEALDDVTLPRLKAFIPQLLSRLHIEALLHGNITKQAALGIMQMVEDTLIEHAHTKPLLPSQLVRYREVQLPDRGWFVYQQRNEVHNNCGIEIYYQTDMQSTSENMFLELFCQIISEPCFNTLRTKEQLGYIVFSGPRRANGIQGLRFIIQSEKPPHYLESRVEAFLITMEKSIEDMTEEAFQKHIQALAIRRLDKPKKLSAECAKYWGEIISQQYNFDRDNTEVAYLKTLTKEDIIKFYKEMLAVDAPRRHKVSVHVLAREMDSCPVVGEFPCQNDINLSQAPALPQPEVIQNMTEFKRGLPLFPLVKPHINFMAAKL

[4] = HEK-293T cell viability reduction – luminescence, B-cell screen hits, cytotoxicity control for BCR NF-kB inhibitor project, dose response (AID 489021); assay type: functional, cell-based;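 note: HEK-293T cells carrying an NF-kB luciferase reporter; cells exposed to compound for about 14 hours before viability readout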
[5] = target: Protein Wnt-3a (Mus musculus, UniProt P27467); assay: antagonism of Wnt3a pathway luciferase reporter – Wnt-LIGHT cells, luminescence, selectivity assay for Gli-SUFU antagonist project, dose response (AID 651570); assay type: functional; settings: read-out: IC50_Mean;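 note: Wnt-LIGHT reporter cells stimulated with conditioned medium from Wnt3a-producing cells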
Chain of Protein Wnt-3a (P27467 whole entry): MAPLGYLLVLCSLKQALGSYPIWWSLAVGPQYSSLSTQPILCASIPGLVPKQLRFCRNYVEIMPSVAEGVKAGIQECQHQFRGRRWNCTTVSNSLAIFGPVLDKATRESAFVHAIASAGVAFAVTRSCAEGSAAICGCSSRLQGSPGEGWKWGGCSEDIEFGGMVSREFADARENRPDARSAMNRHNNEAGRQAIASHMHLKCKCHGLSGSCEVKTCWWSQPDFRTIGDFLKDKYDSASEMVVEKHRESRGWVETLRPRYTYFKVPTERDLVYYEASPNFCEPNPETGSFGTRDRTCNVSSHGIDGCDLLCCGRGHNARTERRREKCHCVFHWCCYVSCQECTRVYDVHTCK

[6] = target: Cytochrome P450 2C19 (Homo sapiens, UniProt P33261); assay: qHTS Assay for Inhibitors and Substrates of Cytochrome P450 2C19. [Related pubchem assays: 410 ]; assay type: ADME; settings: read-out: Potency
Chain of Cytochrome P450 2C19 (P33261 whole entry): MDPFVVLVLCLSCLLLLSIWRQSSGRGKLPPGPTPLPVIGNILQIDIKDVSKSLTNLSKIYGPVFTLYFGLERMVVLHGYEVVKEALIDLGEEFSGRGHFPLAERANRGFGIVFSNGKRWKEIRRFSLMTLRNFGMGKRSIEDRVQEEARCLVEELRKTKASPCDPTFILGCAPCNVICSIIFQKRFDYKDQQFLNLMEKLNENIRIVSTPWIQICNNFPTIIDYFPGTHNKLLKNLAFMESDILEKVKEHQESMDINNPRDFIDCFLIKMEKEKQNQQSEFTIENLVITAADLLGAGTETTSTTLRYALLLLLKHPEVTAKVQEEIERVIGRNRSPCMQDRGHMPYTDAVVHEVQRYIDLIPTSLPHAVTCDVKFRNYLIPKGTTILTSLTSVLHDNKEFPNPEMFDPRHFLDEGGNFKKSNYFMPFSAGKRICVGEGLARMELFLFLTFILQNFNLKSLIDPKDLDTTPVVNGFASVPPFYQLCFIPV

[7] = target: Cytochrome P450 2D6 (Homo sapiens, UniProt P10635); assay: qHTS Assay for Inhibitors and Substrates of Cytochrome P450 2D6. [Related pubchem assays: 410 ]; assay type: ADME; settings: read-out: Potency
Chain of Cytochrome P450 2D6 (P10635 whole entry): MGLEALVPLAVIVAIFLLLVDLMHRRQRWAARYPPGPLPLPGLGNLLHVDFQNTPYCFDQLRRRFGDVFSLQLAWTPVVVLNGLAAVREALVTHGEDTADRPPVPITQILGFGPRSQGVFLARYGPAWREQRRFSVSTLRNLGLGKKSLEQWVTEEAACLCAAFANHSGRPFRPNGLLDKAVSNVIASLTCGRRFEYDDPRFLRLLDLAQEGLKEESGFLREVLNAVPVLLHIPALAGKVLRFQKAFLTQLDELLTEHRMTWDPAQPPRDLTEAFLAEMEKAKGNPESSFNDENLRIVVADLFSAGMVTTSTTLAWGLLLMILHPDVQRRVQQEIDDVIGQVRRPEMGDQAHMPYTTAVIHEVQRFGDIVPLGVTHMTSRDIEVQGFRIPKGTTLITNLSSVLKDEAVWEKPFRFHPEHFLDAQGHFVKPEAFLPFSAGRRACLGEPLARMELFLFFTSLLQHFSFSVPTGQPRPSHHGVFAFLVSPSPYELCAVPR

[8] = target: T2, Aspartyl aminopeptidase (Plasmodium falciparum 3D7, UniProt Q8I2J3)
T2 sequence (Q8I2J3 whole entry): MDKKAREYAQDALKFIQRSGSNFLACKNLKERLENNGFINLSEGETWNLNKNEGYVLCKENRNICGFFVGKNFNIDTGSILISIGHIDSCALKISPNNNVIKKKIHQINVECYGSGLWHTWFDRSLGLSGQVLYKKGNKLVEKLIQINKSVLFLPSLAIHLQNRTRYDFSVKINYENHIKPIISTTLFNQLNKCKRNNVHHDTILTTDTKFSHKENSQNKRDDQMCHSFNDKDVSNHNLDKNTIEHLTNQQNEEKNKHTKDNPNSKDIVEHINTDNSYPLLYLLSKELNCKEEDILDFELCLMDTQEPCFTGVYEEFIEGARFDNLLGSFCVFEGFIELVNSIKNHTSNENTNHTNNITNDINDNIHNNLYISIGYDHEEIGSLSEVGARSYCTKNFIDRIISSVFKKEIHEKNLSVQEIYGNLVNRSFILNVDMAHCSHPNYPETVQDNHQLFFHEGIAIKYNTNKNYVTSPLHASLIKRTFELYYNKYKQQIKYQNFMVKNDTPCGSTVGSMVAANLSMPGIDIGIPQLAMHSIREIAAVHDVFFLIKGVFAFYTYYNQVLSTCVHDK

[9] = target: Procathepsin L (Homo sapiens, UniProt P07711)
Chain of Procathepsin L (P07711 whole entry): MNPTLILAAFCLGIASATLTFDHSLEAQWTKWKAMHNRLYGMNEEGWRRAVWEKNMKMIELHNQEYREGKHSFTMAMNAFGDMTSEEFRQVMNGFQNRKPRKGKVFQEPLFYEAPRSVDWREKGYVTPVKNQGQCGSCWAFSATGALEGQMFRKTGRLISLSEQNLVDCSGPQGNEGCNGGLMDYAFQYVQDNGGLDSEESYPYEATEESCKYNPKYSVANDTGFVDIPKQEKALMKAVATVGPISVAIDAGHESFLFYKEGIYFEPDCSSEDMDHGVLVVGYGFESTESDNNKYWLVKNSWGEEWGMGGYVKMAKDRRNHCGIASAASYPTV

[10] = target: Large T antigen (Simian virus 40, UniProt P03070); assay type: functional, Betapolyomavirus macacae;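 note: Confirmatory-stage PubChem screen for compounds that inhibit SV40 T antigen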
Chain of Large T antigen (P03070 whole entry): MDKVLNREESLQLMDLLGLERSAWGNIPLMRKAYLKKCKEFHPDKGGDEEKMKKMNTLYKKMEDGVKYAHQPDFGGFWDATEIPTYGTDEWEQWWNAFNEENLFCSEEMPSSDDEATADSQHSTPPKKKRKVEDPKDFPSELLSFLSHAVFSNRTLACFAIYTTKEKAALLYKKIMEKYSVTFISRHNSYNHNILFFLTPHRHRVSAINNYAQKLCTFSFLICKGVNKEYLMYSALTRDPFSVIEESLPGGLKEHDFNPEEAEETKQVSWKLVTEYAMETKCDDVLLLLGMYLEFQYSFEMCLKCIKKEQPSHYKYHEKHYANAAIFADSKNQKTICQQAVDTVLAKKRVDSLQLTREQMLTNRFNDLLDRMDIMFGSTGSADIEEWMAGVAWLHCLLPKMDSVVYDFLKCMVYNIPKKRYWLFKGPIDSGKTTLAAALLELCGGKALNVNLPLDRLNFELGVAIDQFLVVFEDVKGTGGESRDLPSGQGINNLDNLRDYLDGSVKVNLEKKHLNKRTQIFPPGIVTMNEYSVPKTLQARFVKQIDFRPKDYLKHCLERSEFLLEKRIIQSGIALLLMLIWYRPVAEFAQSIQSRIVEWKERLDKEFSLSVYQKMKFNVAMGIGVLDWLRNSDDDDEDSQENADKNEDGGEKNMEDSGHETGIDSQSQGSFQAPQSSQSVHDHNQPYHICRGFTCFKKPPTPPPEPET

[11] = target: Intestinal-type alkaline phosphatase (Homo sapiens, UniProt P09923); assay: activation of human intestinal alkaline phosphatase – biochemical, dose response (AID 488873); assay type: functional
Chain of Intestinal-type alkaline phosphatase (Homo sapiens, UniProt P09923) (P09923 whole entry): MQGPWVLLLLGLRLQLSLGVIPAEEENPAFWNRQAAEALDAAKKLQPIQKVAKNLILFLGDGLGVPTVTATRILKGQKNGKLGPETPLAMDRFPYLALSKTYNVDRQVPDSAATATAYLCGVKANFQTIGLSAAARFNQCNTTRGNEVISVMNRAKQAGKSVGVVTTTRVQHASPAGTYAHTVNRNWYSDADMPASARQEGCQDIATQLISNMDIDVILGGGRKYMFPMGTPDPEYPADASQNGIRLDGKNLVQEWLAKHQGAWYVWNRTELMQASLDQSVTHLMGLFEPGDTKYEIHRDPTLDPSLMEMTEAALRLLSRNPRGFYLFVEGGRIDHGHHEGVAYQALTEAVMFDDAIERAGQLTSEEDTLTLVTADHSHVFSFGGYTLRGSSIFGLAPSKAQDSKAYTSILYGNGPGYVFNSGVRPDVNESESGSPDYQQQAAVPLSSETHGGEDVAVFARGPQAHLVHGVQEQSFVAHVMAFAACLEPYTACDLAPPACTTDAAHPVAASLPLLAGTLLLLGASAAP

[12] = target: FAD-linked sulfhydryl oxidase ALR (Homo sapiens, UniProt P55789); assay: ALR-catalysed DTT oxidation blockers – biochemical, H2O2 detection, luminescence, cherry-pick, dose response (AID 493248)
Chain of FAD-linked sulfhydryl oxidase ALR (P55789 whole entry): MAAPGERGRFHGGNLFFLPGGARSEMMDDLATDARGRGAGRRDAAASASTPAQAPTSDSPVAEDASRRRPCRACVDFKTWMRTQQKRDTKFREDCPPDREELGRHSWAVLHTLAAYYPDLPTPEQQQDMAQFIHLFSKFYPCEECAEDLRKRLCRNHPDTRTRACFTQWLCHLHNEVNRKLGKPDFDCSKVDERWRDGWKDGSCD

[13] = target: Intestinal-type alkaline phosphatase (Mus musculus, UniProt P24822); assay: mouse intestinal alkaline phosphatase activators, dose response, biochemical, luminescence, uHTS hits (AID 488783); assay type: functional
Chain of Intestinal-type alkaline phosphatase (Mus musculus, UniProt P24822) (P24822 whole entry): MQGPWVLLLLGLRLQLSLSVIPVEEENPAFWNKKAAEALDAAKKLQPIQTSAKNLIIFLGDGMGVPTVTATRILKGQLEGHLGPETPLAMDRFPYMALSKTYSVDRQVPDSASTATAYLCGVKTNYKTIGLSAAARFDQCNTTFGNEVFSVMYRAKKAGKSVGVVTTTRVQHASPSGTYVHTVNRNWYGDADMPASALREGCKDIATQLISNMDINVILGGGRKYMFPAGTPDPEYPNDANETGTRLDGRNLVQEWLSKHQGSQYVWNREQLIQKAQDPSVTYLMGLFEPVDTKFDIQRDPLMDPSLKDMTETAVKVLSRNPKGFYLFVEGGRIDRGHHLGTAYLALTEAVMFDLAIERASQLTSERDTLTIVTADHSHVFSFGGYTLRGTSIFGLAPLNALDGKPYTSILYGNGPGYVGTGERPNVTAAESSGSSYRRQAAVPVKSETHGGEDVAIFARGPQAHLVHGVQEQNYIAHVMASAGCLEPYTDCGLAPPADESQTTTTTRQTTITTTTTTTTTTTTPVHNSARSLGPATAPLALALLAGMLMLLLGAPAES

[14] = target: T3, Alkaline phosphatase, tissue-nonspecific isozyme (Homo sapiens, UniProt P05186); assay: activation of tissue-nonspecific alkaline phosphatase – biochemical, TNAP isozyme, mouse IAP uHTS hits, selectivity assay for mouse IAP activator project, dose response (AID 488880); assay type: functional
T3 sequence (P05186 whole entry): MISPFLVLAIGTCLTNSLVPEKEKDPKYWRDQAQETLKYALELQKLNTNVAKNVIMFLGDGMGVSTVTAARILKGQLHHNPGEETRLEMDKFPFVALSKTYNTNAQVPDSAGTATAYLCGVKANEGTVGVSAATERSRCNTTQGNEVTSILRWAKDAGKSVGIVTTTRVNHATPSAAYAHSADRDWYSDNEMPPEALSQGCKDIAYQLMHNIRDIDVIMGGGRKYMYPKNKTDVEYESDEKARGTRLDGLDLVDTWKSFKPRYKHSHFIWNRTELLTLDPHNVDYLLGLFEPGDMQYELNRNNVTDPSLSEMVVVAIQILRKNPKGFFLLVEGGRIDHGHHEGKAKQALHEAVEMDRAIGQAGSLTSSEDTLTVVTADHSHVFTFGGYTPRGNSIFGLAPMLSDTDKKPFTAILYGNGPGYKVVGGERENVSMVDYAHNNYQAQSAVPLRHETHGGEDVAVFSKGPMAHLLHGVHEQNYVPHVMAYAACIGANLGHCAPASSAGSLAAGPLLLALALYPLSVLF

[15] = target: Albumin (Bos taurus, UniProt P02769); assay: Counterscreen for inhibitors of T-cell receptor (TCR)-CD3 interaction: Fluorescence-based biochemical high throughput dose response assay to identify inhibitors of T-cell receptor (TCR)-CD3 interaction using a TAMRA-labeled BSA probe.; assay type: functional
Chain of Albumin (P02769 whole entry): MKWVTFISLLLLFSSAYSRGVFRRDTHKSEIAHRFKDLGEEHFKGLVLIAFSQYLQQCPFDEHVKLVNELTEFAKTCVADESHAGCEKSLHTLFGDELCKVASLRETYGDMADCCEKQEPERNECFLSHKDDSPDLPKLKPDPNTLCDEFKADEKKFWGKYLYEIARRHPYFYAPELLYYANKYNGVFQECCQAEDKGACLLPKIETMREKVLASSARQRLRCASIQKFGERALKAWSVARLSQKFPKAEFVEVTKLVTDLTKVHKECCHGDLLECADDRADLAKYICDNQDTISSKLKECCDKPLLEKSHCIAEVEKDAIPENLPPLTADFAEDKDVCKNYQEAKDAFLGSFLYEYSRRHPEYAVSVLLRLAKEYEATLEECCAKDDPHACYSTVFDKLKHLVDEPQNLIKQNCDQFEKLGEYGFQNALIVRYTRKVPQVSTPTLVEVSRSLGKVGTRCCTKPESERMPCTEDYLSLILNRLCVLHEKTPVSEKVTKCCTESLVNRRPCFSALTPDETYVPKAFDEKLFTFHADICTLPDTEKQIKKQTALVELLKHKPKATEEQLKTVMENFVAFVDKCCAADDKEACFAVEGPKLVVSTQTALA

[16] = viability loss in THP-1 monocytes – THP-1 cells, cytotoxicity control for Vif-APOBEC3G degradation inhibitor project, dose response (AID 1117359); assay type: functional; settings: THP-1

Chain of Cytochrome P450 2C9 (P11712 whole entry): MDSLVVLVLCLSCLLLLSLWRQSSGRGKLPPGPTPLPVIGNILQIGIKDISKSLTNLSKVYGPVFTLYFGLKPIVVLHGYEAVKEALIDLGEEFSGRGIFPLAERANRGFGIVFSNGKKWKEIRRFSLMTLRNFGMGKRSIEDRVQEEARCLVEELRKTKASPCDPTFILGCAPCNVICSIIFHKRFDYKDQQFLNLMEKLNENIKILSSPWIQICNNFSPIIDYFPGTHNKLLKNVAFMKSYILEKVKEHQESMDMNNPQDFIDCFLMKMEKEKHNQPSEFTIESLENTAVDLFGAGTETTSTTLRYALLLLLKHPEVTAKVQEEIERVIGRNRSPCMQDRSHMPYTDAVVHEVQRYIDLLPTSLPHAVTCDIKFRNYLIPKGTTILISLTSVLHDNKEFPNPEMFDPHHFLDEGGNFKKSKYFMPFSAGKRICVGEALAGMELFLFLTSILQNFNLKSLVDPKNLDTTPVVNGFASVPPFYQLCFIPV

## CC(C)(C)c1ccc(OC2C(O)COC2/C=C/C#Cc2ccccc2)cc1 (stereo unspecified)
[1]
  AC50: 5.01 µM (inconclusive)

## CC1CCN(c2c(NCc3ccc(C(=O)N4c5ccccc5CC4C)cc3)c(=O)c2=O)CC1 (stereo unspecified)
[2]
  IC50: 17.6 µM (not active)
[3]
  IC50: 2.98 µM (active)
[4]
  IC50: > 80 µM (inactive)
[5]
  IC50: 16.4 µM (active)

## CCN(CC)[C@@H](C)C(=O)N1c2ccccc2Sc2ccccc21
[6]
  AC50: 31.6 µM (inconclusive)
[7]
  AC50: 20 µM (inconclusive)

## Oc1ccc(/C=N/N=C/c2ccc(O)c(O)c2)cc1O
[8]
  IC50: 1.75 µM (active)
[9]
  IC50: > 59.6 µM (not active)
[10]
  IC50: 1.15 µM (active)
[11]
  EC50: 27.3 µM (active)
[12]
  AC50: 0.543 µM (active)
[13]
  EC50: 18 µM (active)
[14]
  EC50: 37.4 µM (active)
[15]
  IC50: > 94.1 µM (inactive)
[16]
  CC50: 39.1 µM (active)
